ChEMBL document CHEMBL5053490, “Fusaricide is a Novel Iron Chelator that Induces Apoptosis through Activating Caspase-3” (J Nat Prod, 2021)
The source made the active and inactive calls. The calls are words filed in the database; no cut-off is given here.

Tests used:
NCI-H460 [1] = experiment: Cytotoxicity against human NCI-H460 cells assessed as cell viability rescue at 10 uM incubated for 24 hrs in presence of Fecl3 by CCK8 assay; format: functional, cell-based
NCI-H1299 [2] = experiment: Cytotoxicity against human NCI-H1299 cells assessed as cell viability rescue at 10 uM incubated for 24 hrs in presence of Fecl3 by CCK8 assay; format: functional, cell-based
NCI-H226 [3] = experiment: Cytotoxicity against human NCI-H226 cells assessed as cell viability rescue at 10 uM incubated for 24 hrs in presence of Fecl3 by CCK8 assay; format: functional, cell-based
NCI-H460 [4] = experiment: Induction of cell cycle arrest in human NCI-H460 cells assessed as accumulation at sub G2/M phase at 10 uM after 12 hrs by flow cytometric analysis (reference value: 9.8%); format: functional
NCI-H460 [5] = experiment: Induction of apoptosis in human NCI-H460 cells assessed as necrotic cells at 10 uM incubated for 36 hrs by AnnexinV-FITC/propidium iodide staining based flow cytometry (reference value: 1.28%); format: functional
NCI-H226 [6] = experiment: Reversal of cell death in human NCI-H226 cells at up to 40 uM measured after 24 hrs by in presence of FeCl3; format: functional, cell-based
NCI-H460 [7] = experiment: Induction of apoptosis in human NCI-H460 cells assessed as early apoptotic cells at 10 uM incubated for 24 hrs by AnnexinV-FITC/propidium iodide staining based flow cytometry (reference value: 0.74%); format: functional
NCI-H460 [8] = experiment: Induction of cell cycle arrest in human NCI-H460 cells assessed as decrease in cyclin D1 expression at 10 uM after 24 hrs by Western blot analysis; format: functional, cell-based
NCI-H460 [9] = experiment: Induction of cell cycle arrest in human NCI-H460 cells assessed as accumulation at sub S phase at 10 uM after 12 hrs by flow cytometric analysis (reference value: 25.7%); format: functional
NCI-H460 [10] = experiment: Downregulation of FTH level in human NCI-H460 cells at 10 uM by Western blot analysis; format: functional, cell-based
NCI-H460 [11] = experiment: Induction of apoptosis in human NCI-H460 cells assessed as increase in Caspase 3 activity at 10 uM measured by Western blot analysis; format: functional, cell-based; conditions: time <= 48.0 hrs, TDE = time-dependent effect
NCI-H460 [12] = experiment: Induction of apoptosis in human NCI-H460 cells assessed as late apoptotic cells at 10 uM incubated for 24 hrs by AnnexinV-FITC/propidium iodide staining based flow cytometry (reference value: 7.54%); format: functional
NCI-H460 [13] = experiment: Induction of cell cycle arrest in human NCI-H460 cells assessed as accumulation at sub G0/G1 phase at 10 uM after 12 hrs by flow cytometric analysis (reference value: 64.5%); format: functional
NCI-H460 [14] = experiment: Induction of morphological changes in human NCI-H460 cells assessed as roughness of cell membrane at 10 uM measured after 24 hrs by Hoechst 33342 staining based assay; format: functional
NCI-H460 [15] = experiment: Induction of apoptosis in human NCI-H460 cells assessed as necrotic cells at 10 uM incubated for 48 hrs by AnnexinV-FITC/propidium iodide staining based flow cytometry (reference value: 1.28%); format: functional
NCI-H460 [16] = experiment: Induction of apoptosis in human NCI-H460 cells assessed as necrotic cells at 10 uM incubated for 24 hrs by AnnexinV-FITC/propidium iodide staining based flow cytometry (reference value: 1.28%); format: functional
NCI-H460 [17] = experiment: Induction of apoptosis in human NCI-H460 cells assessed as early apoptotic cells at 10 uM incubated for 48 hrs by AnnexinV-FITC/propidium iodide staining based flow cytometry (reference value: 0.74%); format: functional
NCI-H460 [18] = experiment: Induction of apoptosis in human NCI-H460 cells assessed as early apoptotic cells at 10 uM incubated for 36 hrs by AnnexinV-FITC/propidium iodide staining based flow cytometry (reference value: 0.74%); format: functional
NCI-H460 [19] = experiment: Induction of morphological changes in human NCI-H460 cells assessed as chromatin condensation at 10 uM measured after 24 hrs by Hoechst 33342 staining based assay; format: functional, cell-based
NCI-H460 [20] = experiment: Induction of apoptosis in human NCI-H460 cells assessed as viable cells at 10 uM incubated for 48 hrs by AnnexinV-FITC/propidium iodide staining based flow cytometry (reference value: 90.4%); format: functional; conditions: read-out: Activity
NCI-H460 [21] = experiment: Induction of apoptosis in human NCI-H460 cells assessed as viable cells at 10 uM incubated for 24 hrs in presence of FeCl3 by AnnexinV-FITC/propidium iodide staining based flow cytometry (reference value: 89.5%); format: functional; conditions: read-out: Activity
NCI-H460 [22] = experiment: Induction of apoptosis in human NCI-H460 cells assessed as increase in cleaved PARP measured upto 48 hrs by Western blot analysis; format: functional, cell-based; conditions: TDE = time-dependent effect
NCI-H460 [23] = experiment: Induction of apoptosis in human NCI-H460 cells assessed as necrotic cells at 10 uM incubated for 24 hrs in presence of FeCl3 by AnnexinV-FITC/propidium iodide staining based flow cytometry (reference value: 2.4%); format: functional
NCI-H460 [24] = experiment: Cytotoxicity against human NCI-H460 cells assessed as reduction in cell viability incubated for 24 hrs by CCK8 assay; format: functional, cell-based; conditions: NCI-H460, 24 h
NCI-H460 [25] = experiment: Induction of apoptosis in human NCI-H460 cells assessed as viable cells at 10 uM incubated for 12 hrs by AnnexinV-FITC/propidium iodide staining based flow cytometry (reference value: 90.4%); format: functional; conditions: read-out: Activity
MRC5 = experiment: Cytotoxicity against human MRC5 cells up to 100 uM assessed as reduction in cell viability incubated for 48 hrs by CCK8 assay; format: cell-based; conditions: mrc5, 48 h
NCI-H460 [26] = experiment: Induction of apoptosis in human NCI-H460 cells assessed as decrease in PARP measured upto 48 hrs by Western blot analysis; format: functional, cell-based; conditions: TDE = time-dependent effect
NCI-H460 [27] = experiment: Induction of apoptosis in human NCI-H460 cells assessed as early apoptotic cells at 10 uM incubated for 24 hrs in presence of FeCl3 by AnnexinV-FITC/propidium iodide staining based flow cytometry (reference value: 1.69%); format: functional
NCI-H460 [28] = experiment: Induction of apoptosis in human NCI-H460 cells assessed as viable cells at 10 uM incubated for 36 hrs by AnnexinV-FITC/propidium iodide staining based flow cytometry (reference value: 90.4%); format: functional; conditions: read-out: Activity
NCI-H460 [29] = experiment: Cytotoxicity against human NCI-H460 cells assessed as reduction in cell viability incubated for 48 hrs by CCK8 assay; format: functional, cell-based; conditions: NCI-H460, 48 h
NCI-H460 [30] = experiment: Induction of apoptosis in human NCI-H460 cells assessed as viable cells at 10 uM incubated for 24 hrs by AnnexinV-FITC/propidium iodide staining based flow cytometry (reference value: 90.4%); format: functional; conditions: read-out: Activity
NCI-H460 [31] = experiment: Induction of cell cycle arrest in human NCI-H460 cells assessed as accumulation at sub G2/M phase at 10 uM after 24 hrs by flow cytometric analysis (reference value: 9.8%); format: functional
NCI-H460 [32] = experiment: Induction of apoptosis in human NCI-H460 cells assessed as late apoptotic cells at 10 uM incubated for 12 hrs by AnnexinV-FITC/propidium iodide staining based flow cytometry (reference value: 7.54%); format: functional
NCI-H460 [33] = experiment: Induction of apoptosis in human NCI-H460 cells assessed as late apoptotic cells at 10 uM incubated for 24 hrs in presence of FeCl3 by AnnexinV-FITC/propidium iodide staining based flow cytometry (reference value: 6.09%); format: functional
NCI-H460 [34] = experiment: Induction of apoptosis in human NCI-H460 cells assessed as late apoptotic cells at 10 uM incubated for 48 hrs by AnnexinV-FITC/propidium iodide staining based flow cytometry (reference value: 7.54%); format: functional
NCI-H460 [35] = experiment: Induction of apoptosis in human NCI-H460 cells assessed as late apoptotic cells at 10 uM incubated for 36 hrs by AnnexinV-FITC/propidium iodide staining based flow cytometry (reference value: 7.54%); format: functional
NCI-H460 [36] = experiment: Induction of apoptosis in human NCI-H460 cells assessed as necrotic cells at 10 uM incubated for 12 hrs by AnnexinV-FITC/propidium iodide staining based flow cytometry (reference value: 1.28%); format: functional
NCI-H460 [37] = experiment: Upregulation of TfR1 level in human NCI-H460 cells at 10 uM by Western blot analysis; format: functional, cell-based
NCI-H460 [38] = experiment: Induction of cell cycle arrest in human NCI-H460 cells assessed as increase in activated gammaH2AX expression at 10 uM after 24 hrs by Western blot analysis; format: functional, cell-based
NCI-H460 [39] = experiment: Induction of apoptosis in human NCI-H460 cells assessed as increase in Bax at 10 uM measured by Western blot analysis; format: functional, cell-based
NCI-H460 [40] = experiment: Cytotoxicity against human NCI-H460 cells assessed as reduction in cell viability at 5 uM incubated for 48 hrs by CCK8 assay; format: functional, cell-based
NCI-H460 [41] = experiment: Effect on labile iron pool in human NCI-H460 cells assessed as […] at 10 uM by calcein-AM staining based flow cytometry analysis relative to control; format: functional, cell-based
NCI-H460 [42] = experiment: Induction of apoptosis in human NCI-H460 cells assessed as early apoptotic cells at 10 uM incubated for 12 hrs by AnnexinV-FITC/propidium iodide staining based flow cytometry (reference value: 0.74%); format: functional
HEK-293T = experiment: Cytotoxicity against human HEK293T cells up to 100 uM assessed as reduction in cell viability incubated for 48 hrs by CCK8 assay; format: cell-based
NCI-H460 [43] = experiment: Induction of cell cycle arrest in human NCI-H460 cells assessed as accumulation at […] at 10 uM after 24 hrs by flow cytometric analysis (reference value: 25.7%); format: functional
NCI-H460 [44] = experiment: Reversal of cell death in human NCI-H460 cells at up to 40 uM measured after 24 hrs by in presence of FeCl3; format: functional, cell-based
NCI-H460 [45] = experiment: Induction of cell cycle arrest in human NCI-H460 cells assessed as increase in p-53 expression at 10 uM after 24 hrs by Western blot analysis; format: functional, cell-based
NCI-H460 [46] = experiment: Induction of cell cycle arrest in human NCI-H460 cells assessed as accumulation at sub G0/G1 phase at 10 uM after 24 hrs by flow cytometric analysis (reference value: 64.5%); format: functional
NCI-H1299 [47] = experiment: Reversal of cell death in human NCI-H1299 cells at up to 40 uM measured after 24 hrs by in presence of FeCl3; format: functional, cell-based

## CC(=O)O[C@H]1C(=O)[C@@]2(C)[C@H]([C@H](OC(=O)c3ccccc3)[C@]3(O)C[C@H](OC(=O)[C@H](O)[C@@H](NC(=O)c4ccccc4)c4ccccc4)C(C)=C1C3(C)C)[C@]1(OC(C)=O)CO[C@@H]1C[C@@H]2O
NCI-H460 [1]
  Activity: inactive
NCI-H1299 [2]
  Activity: inactive
NCI-H226 [3]
  Activity: inactive

## CC[C@H]1Oc2ccn(O)c(=O)c2[C@H]2[C@H](C)C[C@H](C)C[C@]12C
NCI-H460 [4]
  Activity: 2.2%
NCI-H460 [5]
  Activity: 3.92%
NCI-H226 [6]
  Activity: Active
NCI-H460 [7]
  Activity: 6.27%
NCI-H460 [8]
  Activity: Active
NCI-H460 [9]
  Activity: 25.9%
NCI-H460 [10]
  Activity: Active
NCI-H460 [11]
  Activity: Tde
NCI-H460 [12]
  Activity: 15.7%
NCI-H460 [13]
  Activity: 71.8%
NCI-H460 [14]
  Activity: Active
NCI-H460 [15]
  Activity: 3.4%
NCI-H460 [16]
  Activity: 2.44%
NCI-H460 [17]
  Activity: 4.51%
NCI-H460 [18]
  Activity: 4.29%
NCI-H460 [19]
  Activity: Active
NCI-H460 [20]
  viability at 10 µM: 34.2%
NCI-H460 [21]
  viability at 10 µM: 93.8%
NCI-H460 [22]
  Activity: Tde
NCI-H460 [23]
  Activity: 1.01%
NCI-H460 [24]
  IC50: 4.94 µM
NCI-H460 [25]
  viability at 10 µM: 86.3%
MRC5
  Activity: Toxic
NCI-H460 [26]
  Activity: Tde
NCI-H460 [27]
  Activity: 0.75%
NCI-H460 [28]
  viability at 10 µM: 56.1%
NCI-H460 [29]
  IC50: 1.76 µM
NCI-H460 [1]
  Activity: inactive
NCI-H460 [30]
  viability at 10 µM: 75.6%
NCI-H460 [31]
  Activity: 0.8%
NCI-H460 [32]
  Activity: 9.5%
NCI-H460 [33]
  Activity: 4.43%
NCI-H460 [34]
  Activity: 57.9%
NCI-H1299 [2]
  Activity: inactive
NCI-H226 [3]
  Activity: inactive
NCI-H460 [35]
  Activity: 35.7%
NCI-H460 [36]
  Activity: 1.7%
NCI-H460 [37]
  Activity: Active
NCI-H460 [38]
  Activity: Active
NCI-H460 [39]
  Activity: Active
NCI-H460 [40]
  Activity: Dose-dependent effect
NCI-H460 [41]
  Activity: Active
NCI-H460 [42]
  Activity: 2.93%
HEK-293T
  Activity: Toxic
NCI-H460 [43]
  Activity: 26%
NCI-H460 [44]
  Activity: Active
NCI-H460 [45]
  Activity: Active
NCI-H460 [46]
  Activity: 73.9%
NCI-H1299 [47]
  Activity: Active

## O=C(O)c1ccc(-n2nc(-c3ccccc3O)nc2-c2ccccc2O)cc1 [DEFERASIROX]
NCI-H460 [24]
  IC50: 98.4 µM
NCI-H460 [29]
  IC50: 20.4 µM
